Data reported in patent publication US20120121680A1, “ANIMAL REPELLING DEICER” (NORTH AMERICAN SALT COMPANY, priority 2010, published 2012).

Tested on: whitetail deer
Assay: Free-choice consumption of repellent-adulterated salt by salt-deprived deer
Format: in vivo
Details: mean per 48-hour provision, dry matter basis
Description: The products evaluated were three classes of commercially available, non-lethal repellents. Products that repel deer based on taste modification, chemical irritation and fear were evaluated. One gram of water was used to blend the dry repellents with loose salt in a V-mixer (tumble mixer). Liquid repellents were added directly to salt and blended using the V-mixer. After blending, the adulterated salt was weighed into labeled, channel-lock bags, sealed, and stored for eventual delivery to the test farm.
Testing was carried out at the farm of a whitetail deer farmer located in Indiana. The testing was carried out by both the farmer and a veterinarian. Approximately twelve deer that ranged in age from 1.5 to 3 years were used in the study. The deer appeared to be healthy at the beginning of the study and maintained satisfactory health during the completion of the study. Signs consistent with clinical disease were not observed, and medical treatments were not administered to any of the deer. The deer were divided into two groups and housed in two separate grass paddocks. Each paddock housed approximately six deer. The size of the paddocks was about 250 ft.×100 ft.
The deer used in the study were fed a diet that was devoid of supplemental salt. Feed was provided in plastic feeders on the ground and inside a wooden, three-sided feeding station that was constructed by the farm owner. Feeding stations were present in both paddocks. Salt was provided free-choice in shallow, black rubber pans, and the pans were housed in a raised, wooden trough that was mounted on the wall of the feeding station. Water was provided to the deer in round plastic containers located within the paddocks. Water and feed were provided to the deer by the farm owner.
Prior to initiation of the study, the salt-free diet and free-choice, unadulterated salt were provided to the deer for a period of one-week to permit acclimation to the feeding regimen. After initiation of the study, access to salt was restricted in an attempt to impose a state of salt deprivation in the deer. Free-choice, unadulterated salt was removed, and the deer were fed the diet deficient in salt for a period of 48 hours to induce salt deprivation. After 48 hours, free-choice salt containing the different repellents was provided. After 48 hours, salt containing the repellents was removed, and another 48-hour period of salt deprivation was imposed followed by provision of adulterated salt for another 48-hour period. The regimen of 48 hours of adulterated salt provision, 48 hours of salt deprivation was used throughout the study and constituted an experimental replication. A total of eight replications were completed for the chemical irritation and fear class of repellents. A total of seven replications were completed for the taste class of repellents.
The pans containing adulterated salt were randomly arranged in the raised, wooden trough on each replication to prevent the deer from becoming habituated to the placement of repellents in a particular position in the trough. A one-week period of access to unadulterated salt was permitted after the final replication of the respective classes of repellents was completed. The experimental period for each class of repellents varied between 28 and 32 days.
Absolute dry matter of unadulterated salt was determined by drying 1 gram samples in a 212° F. (100° C.) oven for a period of 24 hours. Dry matter of unadulterated salt was determined to be 99.8%. After collection of adulterated and unadulterated salt from the feeding stations, the salt was transferred to aluminum pans and dried in a 131° F. (55° C.) oven for 48 hours to determine physiologic dry matter.
Salt consumption was determined by calculating the difference between salt provided and salt collected after 48 hours. The data was converted to, and expressed on, a dry matter basis.
Consumption data for the two paddocks was merged for analysis. […]

[1] = taste repellents in free salt at Table 1 inclusion rates, seven replications

Compound	Consumed [1] [g]	also measured
CC[N+](CC)(CC(=O)Nc1c(C)cccc1C)Cc1ccccc1 [Bitrex, Denatonium benzoate]	8.29	–
COc1cc(CNC(=O)CCCC/C=C/C(C)C)ccc1O [Capsaicin]	–	Consumed (chemical irritation repellent, 0.007% by weight in salt, eight replications): 8.81 g; Consumed (chemical irritation repellent, 0.07% by weight in salt, eight replications): 9.38 g
[Cl-].[Li+] [Lithium Chloride, Lithium chloride]	–	Consumed (chemical irritation repellent, 0.38% by weight in salt, eight replications): 7.06 g
Acid casein	8.21	–
Rennet casein	10.43	–
Sodium caseinate	7.62	–
